In paper PMC11116543, “Computer-aided pattern scoring – A multitarget dataset-driven workflow to predict ligands of orphan targets” (Scientific Data, 2024):
Like-named read-outs stand apart in the source and are kept apart here.

Columns and labels:
ABCA1 = ABCA1 (Mus musculus, UniProt P41233); assay: cell-based
ABCB1, ABCC1, and ABCG2 = assay: Specificity screen against other ABC transporters: calcein AM (A2780/ADR), daunorubicin (H69AR) and pheophorbide A (MDCK II BCRP) assays; assay type: cell-based; settings: 10 µM compound; Supplementary Fig. S3; result in words
Source text: Apart from the high hit rate, potency, and structural diversity of the output molecules, it is important to note that the multitarget dataset cross-annotated the molecular-structural and physicochemical information of ligands on a multitude of targets. In order to assess its ABCA-specificity, we tested the hit compounds 4, 7, 8, 11, 13, 28, 29, 30, 32, 41, 46, 47, 50, 58, and 59 against ABC transporters of three different subfamilies, namely ABCB1, ABCC1, and ABCG2[40]. […] On the other hand, it is unlikely that the compounds bear selectivity toward ABCA1, which can be seen as opportunity to explore other ABCA transporters as well, and warrants future investigations.
Suppl ementary Fig. 3 Biological Assessment of hi t compounds 4 , 7, 8 , 11 , 13 , 28, 29, 30, 32,
cal ce i n AM (a), daunorubicin (b), and pheophorbide A (c) assays using ABCB1-expressing
A 2780/ A DR (a), A BCC 1- expressi ng H 69A R (b), and ABCG2-expressing MDCK II BCRP (c) cells as
2. Möhl e, L. , et al . ABC Transporter C1 Prevents Dimethyl Fumarate from Targeting
Alzheimer's Disease. Biology (Basel) 12 ( 7) , 932,
(1 picture or pasted object on this page, not shown here)

[1] = IC50, full concentration-effect curves, Fig. 4(b), mean ± SEM of at least three independent experiments, J774A.1 cells

Sequence of ABCA1 (P41233 whole entry): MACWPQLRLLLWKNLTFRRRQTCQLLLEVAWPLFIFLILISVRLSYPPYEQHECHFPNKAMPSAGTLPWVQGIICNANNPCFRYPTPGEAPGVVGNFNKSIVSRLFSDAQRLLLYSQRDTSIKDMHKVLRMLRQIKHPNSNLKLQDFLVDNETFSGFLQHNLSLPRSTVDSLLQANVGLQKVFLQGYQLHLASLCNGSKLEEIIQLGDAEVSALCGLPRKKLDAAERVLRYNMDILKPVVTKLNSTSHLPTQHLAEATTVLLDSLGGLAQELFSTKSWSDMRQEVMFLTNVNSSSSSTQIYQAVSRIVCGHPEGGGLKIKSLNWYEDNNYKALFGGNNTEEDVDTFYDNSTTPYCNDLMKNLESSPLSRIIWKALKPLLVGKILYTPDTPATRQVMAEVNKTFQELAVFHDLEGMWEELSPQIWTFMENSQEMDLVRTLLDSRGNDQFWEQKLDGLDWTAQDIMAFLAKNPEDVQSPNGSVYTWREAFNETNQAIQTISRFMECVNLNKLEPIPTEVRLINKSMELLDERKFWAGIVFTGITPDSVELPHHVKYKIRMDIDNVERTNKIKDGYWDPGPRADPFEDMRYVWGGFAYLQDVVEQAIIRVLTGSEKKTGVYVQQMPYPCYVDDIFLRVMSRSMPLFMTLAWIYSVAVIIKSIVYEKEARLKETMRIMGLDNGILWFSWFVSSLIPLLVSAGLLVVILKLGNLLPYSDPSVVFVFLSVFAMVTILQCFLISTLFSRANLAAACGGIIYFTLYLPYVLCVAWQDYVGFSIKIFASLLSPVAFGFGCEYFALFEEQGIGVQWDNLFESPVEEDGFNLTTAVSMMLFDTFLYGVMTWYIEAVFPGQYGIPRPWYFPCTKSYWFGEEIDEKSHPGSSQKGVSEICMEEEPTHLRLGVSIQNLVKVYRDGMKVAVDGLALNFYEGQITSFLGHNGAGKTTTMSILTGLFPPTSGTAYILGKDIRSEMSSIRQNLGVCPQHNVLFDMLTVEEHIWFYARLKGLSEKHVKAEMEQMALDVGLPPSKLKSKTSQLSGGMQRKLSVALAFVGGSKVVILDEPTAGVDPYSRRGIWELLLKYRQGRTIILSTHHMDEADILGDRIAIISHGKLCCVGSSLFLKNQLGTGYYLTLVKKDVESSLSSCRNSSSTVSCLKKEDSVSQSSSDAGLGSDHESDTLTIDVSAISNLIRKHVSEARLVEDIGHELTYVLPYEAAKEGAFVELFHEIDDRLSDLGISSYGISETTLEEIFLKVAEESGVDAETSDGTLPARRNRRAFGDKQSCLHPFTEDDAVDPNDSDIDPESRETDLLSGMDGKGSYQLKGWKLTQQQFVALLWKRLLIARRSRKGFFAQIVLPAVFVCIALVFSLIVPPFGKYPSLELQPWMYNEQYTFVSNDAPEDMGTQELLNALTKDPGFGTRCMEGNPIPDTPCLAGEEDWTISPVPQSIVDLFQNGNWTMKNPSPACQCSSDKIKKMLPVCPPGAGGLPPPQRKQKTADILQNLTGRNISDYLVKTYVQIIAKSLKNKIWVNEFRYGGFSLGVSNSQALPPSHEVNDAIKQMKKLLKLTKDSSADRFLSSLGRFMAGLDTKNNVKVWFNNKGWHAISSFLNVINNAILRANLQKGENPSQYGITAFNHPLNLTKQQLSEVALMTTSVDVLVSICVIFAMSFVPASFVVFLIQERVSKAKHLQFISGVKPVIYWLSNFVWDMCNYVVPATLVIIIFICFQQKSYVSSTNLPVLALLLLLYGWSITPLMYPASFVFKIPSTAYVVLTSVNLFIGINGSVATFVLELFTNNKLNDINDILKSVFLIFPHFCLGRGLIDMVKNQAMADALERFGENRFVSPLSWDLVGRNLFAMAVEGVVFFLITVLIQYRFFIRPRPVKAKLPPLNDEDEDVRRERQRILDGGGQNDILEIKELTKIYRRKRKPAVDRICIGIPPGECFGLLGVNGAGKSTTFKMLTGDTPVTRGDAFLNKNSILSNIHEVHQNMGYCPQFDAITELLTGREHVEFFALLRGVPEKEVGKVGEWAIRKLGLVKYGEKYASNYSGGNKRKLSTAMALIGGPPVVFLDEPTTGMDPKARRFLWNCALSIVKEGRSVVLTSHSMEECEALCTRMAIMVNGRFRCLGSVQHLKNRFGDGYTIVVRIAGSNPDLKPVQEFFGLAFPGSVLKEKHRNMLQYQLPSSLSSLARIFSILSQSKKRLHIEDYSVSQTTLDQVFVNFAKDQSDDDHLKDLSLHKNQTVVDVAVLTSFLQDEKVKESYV

| IC50 (ABCA1) [µM] | IC50 (ABCA1; [1]) [µM] | Structure (SMILES) | inhibition of other ABC transporters (ABCB1, ABCC1, ABCG2) (ABCB1, ABCC1, and ABCG2) |
| --- | --- | --- | --- |
| 5.08 ± 0.62 | 8.76 ± 1.04 | COCCc1ccc(OCC(O)CNC(=O)C2CC(F)(F)CCC2(C)C)cc1 (centres unmarked) [Compound 11] | least inhibition of other ABC transporters |
| 21.5 ± 3.4 | 18.9 ± 2.3 | COc1cc(OC)c2cc(C(=O)N3C[C@@H](O)CC4(CCCC4)C3)[nH]c2c1OC [Compound 47] |  |
| 9.12 ± 2.9 | 21.2 ± 0.6 | COc1ccc2c(N3C[C@H](O)[C@H](O)CC4(CCCC4)C3)ncnc2c1F [Compound 59] | significant inhibition against either two or three of the assessed transporters |
